Values of other authors, collected in article PMC7466129, “Solid Lipid Nanoparticles for Duodenum Targeted Oral Delivery of Tilmicosin” (Pharmaceutics, 2020).
In brackets after ≈: the same amount, converted by molar mass.

What was measured:
[1] = design: method as in PMID 31614726; conditions: 100 °C, 30 min
[2] = tested on: Actinobacillus pleuropneumoniae; design: method as in PMID 29139136
Mycoplasma = tested on: Mycoplasma; design: method as in PMID 29149886

## CC[C@H]1OC(=O)C[C@@H](O)[C@H](C)[C@@H](O[C@@H]2O[C@H](C)[C@@H](O)[C@H](N(C)C)[C@H]2O)[C@@H](CCN2C[C@H](C)C[C@H](C)C2)C[C@@H](C)C(=O)/C=C/C(C)=C/[C@@H]1CO[C@@H]1O[C@H](C)[C@@H](O)[C@@H](OC)[C@H]1OC [tilmicosin, Tilmicosin]
[1]
  saturation solubility in carnauba wax: 50%
  saturation solubility in hydrogenated castor oil: 25%
[2]
  minimum inhibitory concentration (MIC): 0.5 µg/mL (≈ 0.575 µM)
Mycoplasma
  minimum inhibitory concentration (MIC): ≤ 0.25 µg/mL
